In PMC7035970 (Cell chemical biology, 2019):
Converted amounts (≈) assume the structure as drawn. Read-outs that look alike come from different tables or passages of the source.

What was measured:
[1] = tested on: M. tuberculosis H37Rv; test: MIC, microplate-based Alamar Blue assay; assay type: cell-based, Mycobacterium tuberculosis
[2] = tested on: FAS-II pathway in M. tuberculosis H37Rv; assay type: cell-based, Mycobacterium tuberculosis
[3] = tested on: M. tuberculosis strain fgd1∷tn; test: MIC versus F420H2 deficient strain fgd1∷tn; assay type: cell-based, Mycobacterium tuberculosis
[4] = tested on: M. tuberculosis; test: Minimum bactericidal concentration; assay type: cell-based, Mycobacterium tuberculosis
[5] = tested on: M. tuberculosis H37Rv; test: Griess assay for NO• quantification, H37Rv; assay type: cell-based, Mycobacterium tuberculosis; conditions: 20 μM compound, 5 d exposure, lower limit of quantification 0.80 μM NO2−
[6] = tested on: M. tuberculosis fgd1∷tn; test: Griess assay for NO• quantification, fgd1∷tn; assay type: cell-based, Mycobacterium tuberculosis; conditions: 20 μM compound, lower limit of quantification 0.80 μM NO2−
[7] = tested on: 100 day-old cultures of M. tuberculosis H37Rv; assay type: cell-based, Mycobacterium tuberculosis
[8] = Mouse liver microsomal stability; assay type: in vitro ADME; conditions: liver microsomes, pH 7.4
[9] = molecular target: purified InhA (Mycobacterium tuberculosis, UniProt P9WGR1); test: biochemical; design: species or system M. tuberculosis
Chain of purified InhA (P9WGR1 whole entry, looked up): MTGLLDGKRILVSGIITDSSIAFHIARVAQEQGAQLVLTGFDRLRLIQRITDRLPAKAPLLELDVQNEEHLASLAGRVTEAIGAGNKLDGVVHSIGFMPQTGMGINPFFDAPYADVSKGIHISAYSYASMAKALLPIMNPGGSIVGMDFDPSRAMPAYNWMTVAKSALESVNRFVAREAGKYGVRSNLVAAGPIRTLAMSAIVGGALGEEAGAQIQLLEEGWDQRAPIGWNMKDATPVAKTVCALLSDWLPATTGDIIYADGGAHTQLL

[10] = tested on: M. tuberculosis H37Rv; conditions: cited from earlier work
[11] = for T>MIC: single 25 mg/kg po dose
[12] = in vivo; conditions: female, mouse; for Vd / clearance / half-life: iv, 5 mg/kg
[13] = ref Inoyama et al., 2018; cited from earlier work
[14] = Kinetic aqueous solubility; assay type: physicochemical; conditions: universal aqueous buffer, pH 7.4
[15] = tested on: E. faecium; test: MIC versus ESKAPE bacteria: E. faecium; assay type: cell-based; conditions: Enterococcus faecium
[16] = tested on: P aeruginosa; test: MIC versus ESKAPE bacteria: P aeruginosa; assay type: cell-based
[17] = tested on: E. cloacae; test: MIC versus ESKAPE bacteria: E. cloacae; assay type: cell-based; conditions: Enterobacter cloacae
[18] = Human liver microsomal stability; assay type: in vitro ADME; conditions: liver microsomes, pH 7.4
[19] = Mouse plasma stability; assay type: in vitro ADME; conditions: after 5 h incubation
[20] = tested on: human cytochrome P450 isoforms; assay type: in vitro ADME
[21] = tested on: M. tuberculosis H37Rv; assay type: in vivo; conditions: 60 and 200 mg/kg oral daily, after 4 weeks of dosing, Balb/c mice
[22] = Vero cell-based cytotoxicity; conditions: African green monkey, Vero cells
[23] = Dose proportionality and tolerability in mice; conditions: single dose 300 mg/kg
[24] = Chemical stability, degradation to aminotriazine; conditions: C-N bond cleavage to aminotriazine JSF-3226, light-dependent
[25] = Mycobacterium tuberculosis, H37RV

## NNC(=O)c1ccncc1 [INH, reference compound]
[1]; [25]
  MIC: 0.16 µM (≈ 0.0219 µg/mL)
[2]
  FAMEs and MAMEs profile by TLC: reduction of mycolic acids

## O=[N+]([O-])c1ccc(/C=N/Nc2nc(Nc3ccccc3)nc(Nc3ccccc3)n2)o1 [JSF-2019, (E)-6-(2-((5-nitrofuran-2-yl)methylene)hydrazinyl)-N2,N4-diphenyl-1,3,5-triazine-2,4-diamine]
[1]; [25]
  MIC: 0.078 µM (≈ 0.0325 µg/mL)
[3]
  MIC shift / loss of susceptibility, fgd1∷tn versus H37Rv: 17 fold
[4]
  MBC (lowest concentration to reduce the bacterial population by 2 log10): 600 – 1200 nM
[5]
  NO• release quantified as nitrite: smaller yet quantifiable NO• release compared to pretomanid
[6]
  NO• release quantified as nitrite: not discernible
[7]
  reduction in colony-forming units (CFUs): ~4 log10
[8]
  half-life: 63.6 min
[9]; InhA IC50, in the presence of 1% CMC Tween-20
  IC50: 24 ± 3.6 µM
[9]; InhA IC50, without added detergent, substrate 2-dodecenoyl-CoA, NADH
  IC50: 20 ± 2.4 µM
[2]; […], INH and pretomanid at 10x MIC, JSF-2019 and JSF-2513 1 – 40x MIC
  FAMEs and MAMEs profile by TLC: accumulation of FAMEs and decrease of MAMEs
[10]; ref Ekins et al., 2013
  MIC (minimum concentration to inhibit 90% of bacterial growth): 0.15 µM
[11]; mouse
  T>MIC: 5.0 h
[12]; 25 mg/kg
  Kp at 5 h: 2.6
[12]; po, 25 mg/kg
  AUC: 1150 ng·h/mL
  AUC(0-t): 1150 ng·h/mL
  Cmax: 317 ng/mL
[13]
  aqueous solubility S: < 0.060 µM

## O=[N+]([O-])c1ccc(/C=N/Nc2nc(N3CCOCC3)nc(N3CCOCC3)n2)o1 [JSF-2189, (E)-4,4'-(6-(2-((5-nitrofuran-2-yl)methylene)hydrazineyl)-1,3,5-triazine-2,4-diyl)dimorpholine]
[1]; [25]
  MIC: 7.8 µM (≈ 3.15 µg/mL)
[14]
  solubility at 4 h: 20.2 µM (≈ 8.17 µg/mL)
[8]
  half-life: 68 min

## O=[N+]([O-])c1ccc(/C=N/Nc2nc(Nc3ccccc3)nc(N3CCOCC3)n2)o1 [JSF-2513, (E)-4-morpholino-6-(2-((5-nitrofuran-2-yl)methylene)hydrazineyl)-N-phenyl-1,3,5-triazin-2-amine]
[1]; [25]
  MIC: 0.63 µM (≈ 0.259 µg/mL)
[15]
  MIC: 15 µM (≈ 6.16 µg/mL)
[16]
  MIC: > 120 µM
[17]
  MIC: > 120 µM
[5]
  NO• release quantified as nitrite: in a lesser amount than JSF-2019
[6]
  NO• release quantified as nitrite: abolished
[7]
  reduction in colony-forming units (CFUs): ca. 7 log10
[14]
  solubility at 4 h: 0.853 µM (≈ 0.35 µg/mL)
[18]
  half-life: 61.7 min
  microsomal CLint: 11.2 µL/min/mg
[19]
  stability in mouse plasma, compound remaining: satisfactory stabilities in mouse plasma
[20]
  inhibition of human cytochrome P450 isoforms: did not significantly inhibit
[21]
  M. tuberculosis CFUs in mouse lungs and spleen versus vehicle: failed to demonstrate a reduction in M. tuberculosis CFUs
[9]; InhA IC50
  IC50: > 150 µM
[2]
  FAMEs and MAMEs profile by TLC: depletion of MAMEs and accumulation of precursor FAMEs
[11]; 5 h post a single 25 mg/kg dose, limit of quantification 25 ng/mL
  level in the mouse lungs: near the limit of quantification
[11]; mouse
  Clung/Cplasma at 5 h: BLQ
  T>MIC: 8 to 24 h
[12]
  Vd: 1.38 L/kg
  clearance: 37.2 mL/min/kg
  half-life: 25.8 min
[12]; po, 25 mg/kg
  AUC(0-t): 12000 ng·h/mL
  Cmax: 1710 ng/mL
  bioavailability: ≥ 99%
[22]
  CC50: 3.9 µM
[23]
  tolerability in mice: lethargy

## O=[N+]([O-])c1ccc(/C=N/Nc2nc(N3CCC3)nc(N3CCOCC3)n2)o1 [JSF-2619, (E)-4-(4-(azetidin-1-yl)-6-(2-((5-nitrofuran-2-yl)methylene)hydrazineyl)-1,3,5-triazin-2-yl)morpholine]
[19]
  stability in mouse plasma, compound remaining: satisfactory stabilities in mouse plasma
[11]; mouse
  T>MIC: 3 to 5 h
[12]; 25 mg/kg
  Kp at 5 h: 0.23
[12]
  Vd: 1.91 L/kg
  clearance: 61.7 mL/min/kg
  half-life: 21.6 min
[12]; po, 25 mg/kg
  AUC(0-t): 7640 ng·h/mL
  Cmax: 4200 ng/mL
  bioavailability: 49.2%

## CC1(Nc2nc(N/N=C/c3ccc([N+](=O)[O-])o3)nc(N3CCOCC3)n2)CC1 [JSF-2625, (E)-N-(1-methylcyclopropyl)-4-morpholino-6-(2-((5-nitrofuran-2-yl)methylene)hydrazineyl)-1,3,5-triazin-2-amine]
[1]; [25]
  MIC: 0.25 µM (≈ 0.0971 µg/mL)
[14]
  solubility at 4 h: 8.71 µM (≈ 3.38 µg/mL)
[8]
  half-life: 56.4 min
[11]; mouse
  T>MIC: 1 to 3 h
[12]; 25 mg/kg
  Kp at 5 h: 0.3
[12]
  Vd: 1.44 L/kg
  clearance: 88 mL/min/kg
  half-life: 11.4 min
[12]; po, 25 mg/kg
  AUC(0-t): 538 ng·h/mL
  Cmax: 266 ng/mL
  bioavailability: 11.4%
[24]
  stability in mouse plasma, aqueous DMSO, or aqueous CH3CN: found to degrade

## O=[N+]([O-])c1cn2c(n1)OC[C@@H](OCc1ccc(OC(F)(F)F)cc1)C2 [Pretomanid, reference compound]
[1]; H37Rv
  MIC: 0.078 µM (≈ 0.028 µg/mL)
[1]; [25]
  MIC: 0.039 µM (≈ 0.014 µg/mL)
[7]
  reduction in colony-forming units (CFUs): 6 log10
[2]
  FAMEs and MAMEs profile by TLC: decrease of MAMEs

## FC(F)(F)Oc1ccc(CO[C@@H]2COc3nccn3C2)cc1 [des-nitro pretomanid, reference compound]
[10]; ref Singh et al., 2008
  whole-cell efficacy: lack quantifiable whole-cell efficacy
